In this assay the target is recombinant human His-ATG7 enzyme (Homo sapiens (Human), UniProt O95352). Description: ATG7 Enzyme Assay (HTRF/FRET, ATG3-GST and Flag-Gabarap). The format is biochemical. To be noted: for inhibition at 0.111 µM: Concentration 0.111 μM; for inhibition at 0.123 µM: Concentration 0.123 μM. Summed up:
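HTRF read-out after 2 h at 24° C, using Eu-cryptate anti-Flag and XL-APC anti-GST antibodies in an EDTA stop buffer. The preceding 105 min, 24° C reaction (pH 7.5) held 10 μM ATP, 5 nM each ATG3-GST and Flag-Gabarap, and 0.15 nM human His-ATG7. Values are IC50 or percent inhibition at one concentration.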
(In general: TR-FRET usually uses a lanthanide donor and a delayed reading to cut background.)

Sequence of recombinant human His-ATG7 enzyme (O95352 whole entry): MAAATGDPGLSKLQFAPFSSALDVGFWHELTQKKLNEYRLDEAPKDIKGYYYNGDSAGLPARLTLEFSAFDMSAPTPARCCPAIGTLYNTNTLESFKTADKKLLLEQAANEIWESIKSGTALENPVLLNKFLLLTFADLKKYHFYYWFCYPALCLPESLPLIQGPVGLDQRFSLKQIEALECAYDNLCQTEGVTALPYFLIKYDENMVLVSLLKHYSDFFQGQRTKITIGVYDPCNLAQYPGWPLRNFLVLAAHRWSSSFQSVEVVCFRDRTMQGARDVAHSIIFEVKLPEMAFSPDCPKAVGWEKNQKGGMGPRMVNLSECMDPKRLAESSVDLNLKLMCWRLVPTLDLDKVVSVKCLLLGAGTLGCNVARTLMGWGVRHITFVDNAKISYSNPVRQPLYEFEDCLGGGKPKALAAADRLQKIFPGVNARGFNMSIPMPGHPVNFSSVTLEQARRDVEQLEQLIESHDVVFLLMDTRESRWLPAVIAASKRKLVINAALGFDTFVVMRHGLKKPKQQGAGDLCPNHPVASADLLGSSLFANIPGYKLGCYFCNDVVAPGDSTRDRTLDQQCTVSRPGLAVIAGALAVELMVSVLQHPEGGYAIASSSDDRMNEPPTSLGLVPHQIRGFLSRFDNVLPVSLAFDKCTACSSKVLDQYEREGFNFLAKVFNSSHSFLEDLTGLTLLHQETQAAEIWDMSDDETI

The term IC50 denotes the concentration needed to halve the response being measured. For orientation: inhibition means the relative decrease from the control value, in per cent. On to `Cc1ccc(Sc2nn([C@@H]3O[C@H](COS(N)(=O)=O)[C@@H](O)[C@H]3O)c3ncnc(N)c23)cc1` [Compound I-89, [(2R,3S,4R,5R)-5-{4-amino-3-[(4-methylphenyl)sulfanyl]-1H-pyrazolo[3,4-d]pyrimidin-1-yl}-3,4-dihydroxytetrahydrofuran-2-yl]methyl sulfamate], for which the IC50 is below 20 nM. Besides, under “read-out: Percent Inhibition”, the inhibition at 0.111 µM came to 86%.
As for `Nc1ncnc2c1c(OC(F)F)nn2[C@@H]1O[C@H](COS(N)(=O)=O)[C@@H](O)[C@H]1O` [Compound I-27, {(2R,3S,4R,5R)-5-[4-amino-3-(difluoromethoxy)-1H-pyrazolo[3,4-d]pyrimidin-1-yl]-3,4-dihydroxytetrahydrofuran-2-yl}methyl Sulfamate], the IC50 lay within 20 to 50 nM. In addition, for the setting “read-out: Percent Inhibition”, the inhibition at 0.123 µM was found to be 78%.
As to `Nc1ncnc2c1c(SCC1CCC1)nn2[C@@H]1O[C@H](COS(N)(=O)=O)[C@@H](O)[C@@H]1F` [Compound I-148, [(2R,3R,4S,5R)-5-{4-amino-3-[(cyclobutylmethyl)sulfanyl]-1H-pyrazolo[3,4-d]pyrimidin-1-yl}-4-fluoro-3-hydroxytetrahydrofuran-2-yl]methyl sulfamate], the IC50 was below 20 nM. Further, the inhibition at 0.111 µM (read-out: Percent Inhibition) was 83%.
Take `CC(C)Oc1nn([C@@H]2O[C@H](COS(N)(=O)=O)[C@@H](O)[C@H]2O)c2ncnc(N)c12` [Compound I-7, [(2R,3S,4R,5R)-5-(4-amino-3-isopropoxy-1H-pyrazolo[3,4-d]pyrimidin-1-yl)-3,4-dihydroxytetrahydrofuran-2-yl]methyl sulfamate]: the IC50 is above 500 nM. The inhibition at 0.069 µM (Concentration 0.069 μM, read-out: Percent Inhibition) was determined as 7%.
For the compound `Cc1cccc(Sc2nn([C@H]3C[C@H](O)[C@@H](COS(N)(=O)=O)O3)c3ncnc(N)c23)c1` [Compound I-205, [(2R,3S,5R)-5-{4-amino-3-[(3-methylphenyl)sulfanyl]-1H-pyrazolo[3,4-d]pyrimidin-1-yl}-3-hydroxytetrahydrofuran-2-yl]methyl sulfamate], the IC50 was in the range of 50 to 100 nM. Further, the inhibition at 0.111 µM (read-out: Percent Inhibition) is 55%.
In the case of `Cc1ccccc1Sc1nn([C@@H]2O[C@H](COS(N)(=O)=O)[C@@H](O)[C@H]2O)c2ncnc(N)c12` [Compound I-74, [(2R,3S,4R,5R)-5-{4-amino-3-[(2-methylphenyl)sulfanyl]-1H-pyrazolo[3,4-d]pyrimidin-1-yl}-3,4-dihydroxytetrahydrofuran-2-yl]methyl sulfamate], the IC50 fell in the range of 50 to 100 nM. In addition, the inhibition at 0.123 µM (read-out: Percent Inhibition) worked out at 61%.
As for `Nc1ncnc2c1c(SC1CCCC1)nn2[C@@H]1O[C@H](COS(N)(=O)=O)[C@@H](O)[C@@H]1F` [Compound I-103, {(2R,3R,4S,5R)-5-[4-amino-3-(cyclopentylsulfanyl)-1H-pyrazolo[3,4-d]pyrimidin-1-yl]-4-fluoro-3-hydroxytetrahydrofuran-2-yl}methyl sulfamate], the IC50 was below 20 nM. Further, the inhibition at 0.111 µM (read-out: Percent Inhibition) was 84%.
For `Nc1ncnc2c1c(SCc1ccc(F)cc1)nn2[C@@H]1O[C@H](COS(N)(=O)=O)[C@@H](O)[C@H]1O` [Compound I-63, [(2R,3S,4R,5R)-5-{4-amino-3-[(4-fluorobenzyl)sulfanyl]-1H-pyrazolo[3,4-d]pyrimidin-1-yl}-3,4-dihydroxytetrahydrofuran-2-yl]methyl sulfamate], the IC50 is 20 to 50 nM. Also, the inhibition at 0.111 µM (read-out: Percent Inhibition) worked out at 83%.
In the case of `Cn1cncc1Sc1nn([C@@H]2O[C@H](COS(N)(=O)=O)[C@@H](O)[C@@H]2F)c2ncnc(N)c12` [Compound I-134, [(2R,3R,4S,5R)-5-{4-amino-3-[(1-methyl-1H-imidazol-5-yl)sulfanyl]-1H-pyrazolo[3,4-d]pyrimidin-1-yl}-4-fluoro-3-hydroxytetrahydrofuran-2-yl]methyl Sulfamate], the IC50 was in the range of 100 to 500 nM. The inhibition at 0.111 µM (read-out: Percent Inhibition) came to 37%.
Taken in the same sequence, the figures for `Nc1ncnc2c1c(Sc1ccc3c(c1)OCCO3)nn2[C@H]1C[C@H](O)[C@@H](COS(N)(=O)=O)O1` [Compound I-201, {(2R,3S,5R)-5-[4-amino-3-(2,3-dihydro-1,4-benzodioxin-6-ylsulfanyl)-1H-pyrazolo[3,4-d]pyrimidin-1-yl]-3-hydroxytetrahydrofuran-2-yl}methyl sulfamate] were 20 to 50 nM and 68%.
Consider `Nc1ncnc2c1c(Sc1ccc(C(F)(F)F)cn1)nn2[C@@H]1O[C@H](COS(N)(=O)=O)[C@@H](O)[C@@H]1F` [Compound I-143, [(2R,3R,4S,5R)-5-(4-amino-3-{[5-(trifluoromethyl)pyridin-2-yl]sulfanyl}-1H-pyrazolo[3,4-d]pyrimidin-1-yl)-4-fluoro-3-hydroxytetrahydrofuran-2-yl]methyl sulfamate], for which the IC50 was 50 to 100 nM. Further, the inhibition at 0.111 µM (read-out: Percent Inhibition) was found to be 68%.
With `Nc1ncnc2c1c(Sc1nnc3ccccn13)nn2[C@@H]1O[C@H](COS(N)(=O)=O)[C@@H](O)[C@@H]1F` [Compound I-156, {(2R,3R,4S,5R)-5-[4-amino-3-([1,2,4]triazolo[4,3-a]pyridin-3-ylsulfanyl)-1H-pyrazolo[3,4-d]pyrimidin-1-yl]-4-fluoro-3-hydroxytetrahydrofuran-2-yl}methyl sulfamate], the IC50 was 100 to 500 nM. Moreover, the inhibition at 0.111 µM (read-out: Percent Inhibition) was determined as 30%.
As for `CC(C)Sc1nn([C@H]2C[C@H](O)[C@H](COS(N)(=O)=O)O2)c2ncnc(N)c12` [Compound I-220, {(2S,3S,5R)-5-[4-amino-3-(isopropylsulfanyl)-1H-pyrazolo[3,4-d]pyrimidin-1-yl]-3-hydroxytetrahydrofuran-2-yl}methyl sulfamate], the IC50 is 50 to 100 nM. For the same compound, the inhibition at 0.111 µM (read-out: Percent Inhibition) was found to be 65%.
On to `CCSc1nn([C@H]2C[C@H](O)[C@@H](COS(N)(=O)=O)O2)c2ncnc(N)c12` [Compound I-172, {(2R,3S,5R)-5-[4-amino-3-(ethylsulfanyl)-1H-pyrazolo[3,4-d]pyrimidin-1-yl]-3-hydroxytetrahydrofuran-2-yl}methyl Sulfamate], for which the IC50 was in the range of 50 to 100 nM. Where the note is “read-out: Percent Inhibition”, the inhibition at 0.111 µM amounted to 68%.
`CC(C)(C)Sc1nn([C@@H]2O[C@H](COS(N)(=O)=O)[C@@H](O)[C@H]2O)c2ncnc(N)c12` [Compound I-53, {(2R,3S,4R,5R)-5-[4-amino-3-(tert-butylsulfanyl)-1H-pyrazolo[3,4-d]pyrimidin-1-yl]-3,4-dihydroxytetrahydrofuran-2-yl}methyl sulfamate]: the IC50 lay within 20 to 50 nM. Moreover, the inhibition at 0.123 µM (read-out: Percent Inhibition) amounted to 82%.
Consider `Nc1ncnc2c1c(SC1CCOC1)nn2[C@@H]1O[C@H](COS(N)(=O)=O)[C@@H](O)[C@@H]1F` (mixture of isomers) [Compound I-123, [(2R,3R,4S,5R)-5-{4-amino-3-[(3R)-tetrahydrofuran-3-ylsulfanyl]-1H-pyrazolo[3,4-d]pyrimidin-1-yl}-4-fluoro-3-hydroxytetrahydrofuran-2-yl]methyl sulfamate and [(2R,3R,4S,5R)-5-{4-amino-3-[(3S)-tetrahydrofuran-3-ylsulfanyl]-1H-pyrazolo[3,4-d]pyrimidin-1-yl}-4-fluoro-3-hydroxytetrahydrofuran-2-yl]methyl sulfamate], for which the IC50 lay within 20 to 50 nM. In addition, the inhibition at 0.111 µM (read-out: Percent Inhibition) was 78%.

(Values after patent US10865208B2, “ATG7 inhibitors and the uses thereof” (Millennium Pharmaceuticals, Inc., priority 2016, dated 2020).)
